Values quoted from earlier work, collected in EP0358033B1, “Radical polymerizable compositions and their use” (Henkel Kommanditgesellschaft auf Aktien, priority 1988, dated 1990).

Details: free acid

Question: With `O=C(O)C(Cl)Cl` [Dichloressigsäure] as the molecule, how does the pKS-Wert read?
Answer: ~1,3

Question: Which pKS-Wert does the source give for `CC(=O)O` [Essigsäure] here?
Answer: ~4,76

Question: Which pKS-Wert does the source give for `O=C(O)C(Cl)(Cl)Cl` [Trichloressigsäure] here?
Answer: ~0,6
